In patent publication US20230355622A1, “METHODS OF CHEMOVACCINATION AGAINST PLASMODIUM INFECTIONS” (Merck Sharp & Dohme LLC, priority 2020, published 2023):

test system: parasite; assay: Parasite LDH growth assay (Parasite Assay), antiparasite potency; type: cell-based; details: 72 h, parasite LDH growth assay, ring stage parasites, 72 hours incubation at 37° C.; read-out: EC50
Experimental: Assessing Antiparasite Potency in a Parasite LDH Growth Assay (Parasite Assay)
The parasite stock was maintained at 4% haematocrit in RPMI-Hepes media buffered with sodium bicarbonate and supplemented with 5% heat inactivated human serum and 0.5% albumax.
On the day of assay set up, a blood smear of the parasite culture was Giemsa stained and counted. The parasitemia was adjusted to 0.7% rings and the haematocrit was diluted to 2% in RPMI-Hepes media buffered with sodium bicarbonate and supplemented with 5% heat inactivated human serum and 0.5% albumax. 30 ul of diluted parasites are then added into 10 ul of media+compound in pre-prepared Greiner TC assay plates. Parasite assay plates were placed in gassed humidified boxes in single layer and allowed to incubate at 37° C. for 72 hours. After 72 hours growth, assay plates are sealed with parafilm and frozen flat, in single file at −80° C. overnight. On the following day, assay plates are allowed to thaw at room temperature for 4 hours to which an LDH assay is performed to measure parasite growth.

Compound | EC50 [nM]
CC1(C)CC(=O)N([C@H]2c3cc(C(=O)N[C@@H]4c5ccccc5OC(C)(C)[C@H]4O)ccc3OC2(C)C)C(=N)N1 [Example 182, (3S)-N-[(3S,4R)-3-hydroxy-2,2-dimethyl-chroman-4-yl]-3-(2-imino-4,4-dimethyl-6-oxo-hexahydropyrimidin-1-yl)-2,2-dimethyl-3H-benzofuran-5-carboxamide] | 6.1
COC1COc2ccc(C(=O)N[C@@H]3c4ccccc4OC[C@@]3(C)O)cc2C1N1C(=N)NC(C)(C)CC1=O (stereo partly drawn) [Example 186, N-[(3S,4R)-3-hydroxy-3-methyl-chroman-4-yl]-4-(2-imino-4,4-dimethyl-6-oxo-hexahydropyrimidin-1-yl)-3-methoxy-chromane-6-carboxamide] | 70
CC1(C)CC(=O)N([C@@H]2CCOc3ccc(C(=O)N[C@@H]4c5cc(F)ccc5OC(C)(C)[C@H]4O)cc32)C(=N)N1 [Example 189, (4R)-N-[(3S,4R)-6-fluoro-3-hydroxy-2,2-dimethyl-chroman-4-yl]-4-(2-imino-4,4-dimethyl-6-oxo-hexahydropyrimidin-1-yl)chromane-6-carboxamide] | 1
CCC1(CC)CC(=O)N([C@@H]2CCOc3ccc(C(=O)NC(c4ccccc4)c4ccccc4)cc32)C(=N)N1 [Example 194, (4R)-N-benzhydryl-4-(4,4-diethyl-2-imino-6-oxo-hexahydropyrimidin-1-yl)chromane-6-carboxamide] | 0.9
CC1(C)CC(=O)N([C@@H]2CC(F)(F)c3ccc(C(=O)N[C@@H]4c5ccccc5OC(C)(C)[C@H]4O)cc32)C(=N)N1 [Example 199, (3R)-1,1-difluoro-N-[(3S,4R)-3-hydroxy-2,2-dimethyl-chroman-4-yl]-3-(2-imino-4,4-dimethyl-6-oxo-hexahydropyrimidin-1-yl)indane-5-carboxamide] | 1.1
CC[C@]1(C)CC(=O)N([C@H]2c3cc(C(=O)N[C@@H]4c5ccccc5C[C@@]4(C)O)ccc3OC[C@@H]2COC)C(=N)N1 [Example 202, (3S,4R)-4-[(4R)-4-ethyl-2-imino-4-methyl-6-oxo-hexahydropyrimidin-1-yl]-N-[(1R,2R)-2-hydroxy-2-methyl-indan-1-yl]-3-(methoxymethyl)chromane-6-carboxamide] | 0.8
CCC1(CC)CC(=O)N([C@@H]2C[C@@H](OC)c3ccc(C(=O)N[C@@H]4c5ccccc5OC[C@@]4(C)O)cc32)C(=N)N1 [Example 203, (1R,3R)-3-(4,4-diethyl-2-imino-6-oxo-hexahydropyrimidin-1-yl)-N-[(3S,4R)-3-hydroxy-3-methyl-chroman-4-yl]-1-methoxy-indane-5-carboxamide] | 5.9
CCC1(CC)CC(=O)N(C2c3cc(C(=O)N[C@@H]4c5ccccc5C[C@]4(C)O)ccc3OCC2OC)C(=N)N1 (stereo partly drawn) [Example 213, 4-(4,4-diethyl-2-imino-6-oxo-hexahydropyrimidin-1-yl)-N-[(1R,2S)-2-hydroxy-2-methyl-indan-1-yl]-3-methoxy-chromane-6-carboxamide] | 9
CCC1(CC)CC(=O)N([C@H]2CCS(=O)(=O)c3ccc(C(=O)N[C@@H]4c5ccccc5C[C@H]4O)cc32)C(=N)N1 [Example 223, (4S)-4-(4,4-diethyl-2-imino-6-oxo-hexahydropyrimidin-1-yl)-N-[(1R,2R)-2-hydroxyindan-1-yl]-1,1-dioxo-3,4-dihydro-2H-thiochromene-6-carboxamide] | 300
CC[C@]1(C)CC(=O)N([C@@H]2CCOc3ccc(C(=O)N[C@@H]4c5cc(F)ccc5OC(C)(C)[C@H]4O)cc32)C(=N)N1 [Example 224, (4R)-4-[(4R)-4-ethyl-2-imino-4-methyl-6-oxo-hexahydropyrimidin-1-yl]-N-[(3S,4R)-6-fluoro-3-hydroxy-2,2-dimethyl-chroman-4-yl]chromane-6-carboxamide] | 0.3
CC[C@@]1(C)CC(=O)N([C@@H]2CCOc3ccc(C(=O)N[C@@H]4c5cc(F)ccc5OC(C)(C)[C@H]4O)cc32)C(=N)N1 [Example 225, (4R)-4-[(4S)-4-ethyl-2-imino-4-methyl-6-oxo-hexahydropyrimidin-1-yl]-N-[(3S,4R)-6-fluoro-3-hydroxy-2,2-dimethyl-chroman-4-yl]chromane-6-carboxamide] | 0.8
CCC1(CC)CC(=O)N([C@H]2c3cc(C(=O)N[C@@H]4c5ccccc5C[C@@]4(C)O)ccc3OC[C@H]2COC)C(=N)N1 [Example 235, (3R,4R)-4-(4,4-diethyl-2-imino-6-oxo-hexahydropyrimidin-1-yl)-N-[(1R,2R)-2-hydroxy-2-methyl-indan-1-yl]-3-(methoxymethyl)chromane-6-carboxamide] | 0.7
CCC1(CC)CC(=O)N([C@@H]2C[C@@H](OC)c3ccc(C(=O)N[C@@H]4c5ccccc5OC(C)(C)[C@H]4O)cc32)C(=N)N1 [Example 236, (1R,3R)-3-(4,4-diethyl-2-imino-6-oxo-hexahydropyrimidin-1-yl)-N-[(3S,4R)-3-hydroxy-2,2-dimethyl-chroman-4-yl]-1-methoxy-indane-5-carboxamide] | 0.9
CCC1(CC)CC(=O)N([C@@H]2C[C@H](OC)c3ccc(C(=O)N[C@@H]4c5ccccc5OC(C)(C)[C@H]4O)cc32)C(=N)N1 [Example 239, (1S,3R)-3-(4,4-diethyl-2-imino-6-oxo-hexahydropyrimidin-1-yl)-N-[(3S,4R)-3-hydroxy-2,2-dimethyl-chroman-4-yl]-1-methoxy-indane-5-carboxamide] | 0.9
CCC1(CC)CC(=O)N([C@H]2c3cc(C(=O)N[C@@H]4c5ccccc5OC(C)(C)[C@H]4O)ccc3OC[C@@H]2C)C(=N)N1 [Example 240, (3R,4R)-4-(4,4-diethyl-2-imino-6-oxo-hexahydropyrimidin-1-yl)-N-[(3S,4R)-3-hydroxy-2,2-dimethyl-chroman-4-yl]-3-methyl-chromane-6-carboxamide] | 0.6
CCC1(CC)CC(=O)N([C@H]2c3cc(C(=O)N[C@@H]4c5ccccc5OC(C)(C)[C@H]4O)ccc3OC[C@H]2C)C(=N)N1 [Example 241, (3S,4R)-4-(4,4-diethyl-2-imino-6-oxo-hexahydropyrimidin-1-yl)-N-[(3S,4R)-3-hydroxy-2,2-dimethyl-chroman-4-yl]-3-methyl-chromane-6-carboxamide] | 0.4
CCC1(CC)CC(=O)N([C@H]2c3cc(C(=O)N[C@@H]4c5ccccc5OC(C)(C)[C@H]4O)ccc3OC2(C)C)C(=N)N1 [Example 245, (3S)-3-(4,4-diethyl-2-imino-6-oxo-hexahydropyrimidin-1-yl)-N-[(3S,4R)-3-hydroxy-2,2-dimethyl-chroman-4-yl]-2,2-dimethyl-3H-benzofuran-5-carboxamide] | 0.8
CCC1(CC)CC(=O)N([C@@H]2C[C@@H](C)Oc3ccc(C(=O)N[C@@H]4c5ccccc5OC(C)(C)[C@H]4O)cc32)C(=N)N1 [Example 246, (2R,4R)-4-(4,4-diethyl-2-imino-6-oxo-hexahydropyrimidin-1-yl)-N-[(3S,4R)-3-hydroxy-2,2-dimethyl-chroman-4-yl]-2-methyl-chromane-6-carboxamide] | 2
CCC1(CC)CC(=O)N([C@H]2c3cc(C(=O)N[C@@H]4c5ccccc5OC[C@@]4(C)O)ccc3CC[C@@H]2OC)C(=N)N1 [Example 247, (3S,4S)-4-(4,4-diethyl-2-imino-6-oxo-hexahydropyrimidin-1-yl)-N-[(3S,4R)-3-hydroxy-3-methyl-chroman-4-yl]-3-methoxy-tetralin-6-carboxamide] | 4.5
CCC1(CC)CC(=O)N([C@@H]2CCCOc3ccc(C(=O)N[C@@H]4c5ccccc5OC(C)(C)[C@H]4O)cc32)C(=N)N1 [Example 248, (5R)-5-(4,4-diethyl-2-imino-6-oxo-hexahydropyrimidin-1-yl)-N-[(3S,4R)-3-hydroxy-2,2-dimethyl-chroman-4-yl]-2,3,4,5-tetrahydro-1-benzoxepine-7-carboxamide] | 0.8
CCC1(CC)CC(=O)N([C@H]2c3cc(C(=O)N[C@@H]4c5ccccc5OC(C)(C)[C@H]4O)ccc3CC[C@@H]2OC)C(=N)N1 [Example 276, (3S,4S)-4-(4,4-diethyl-2-imino-6-oxo-hexahydropyrimidin-1-yl)-N-[(3S,4R)-3-hydroxy-2,2-dimethyl-chroman-4-yl]-3-methoxy-tetralin-6-carboxamide] | 0.6

same assay, conditions: parasite LDH growth assay, ring stage parasites, 72 hours incubation at 37° C.; read-out: EC50

Compound | EC50 [nM]
CC[C@]1(C)CC(=O)N([C@@H]2CCOc3ccc(C(=O)NC4c5c(F)cccc5OCC4(C)O)cc32)C(=N)N1 (stereo partly drawn) [Example 193B, (4R)-4-[(4R)-4-ethyl-2-imino-4-methyl-6-oxo-hexahydropyrimidin-1-yl]-N-(5-fluoro-3-hydroxy-3-methyl-chroman-4-yl)chromane-6-carboxamide] | 0.8
CCC1(CC)CC(=O)N([C@@H]2CCOc3ccc(C(=O)NC4c5cc(F)ccc5OCC4(C)O)cc32)C(=N)N1 (stereo partly drawn) [Example 226D, (4R)-4-(4,4-diethyl-2-imino-6-oxo-hexahydropyrimidin-1-yl)-N-(6-fluoro-3-hydroxy-3-methyl-chroman-4-yl)chromane-6-carboxamide] | 1
CCC1(CC)CC(=O)N([C@@H]2CCOc3ccc(C(=O)NC4c5ccccc5OC(C)(C)C4(C)O)cc32)C(=N)N1 (stereo partly drawn) [Example 242A, (4R)-4-(4,4-diethyl-2-imino-6-oxo-hexahydropyrimidin-1-yl)-N-(3-hydroxy-2,2,3-trimethyl-chroman-4-yl)chromane-6-carboxamide] | 0.6
CCC1(CC)CC(=O)N([C@@H]2CCOc3ccc(C(=O)NC4c5ccccc5CC4(O)C(F)(F)F)cc32)C(=N)N1 (stereo partly drawn) [Example 272C, (4R)-4-(4,4-diethyl-2-imino-6-oxo-hexahydropyrimidin-1-yl)-N-[2-hydroxy-2-(trifluoromethyl)indan-1-yl]chromane-6-carboxamide] | 0.9
